In US5672584A (priority 1995, dated 1997):
Where two headings read alike, the source gives them in different places. Where a SMILES comes first, the peptide text is derived from it. Where no end group is shown, it is not given here.

Assays:
[1] = human, whole blood, pH 7.4
[2] = HBSS, pH 7.4, 37° C.
Caco-2 cell monolayer = details: for increase in permeability compared to capped hexapeptide Ac-Trp-Ala-Gly-Gly-Asp-Ala-NH2: Caco-2 Papp ratio; for Papp (apparent permeability coefficient): applied to AP side, flux to BL side of Caco-2 monolayer; for permeation to BL side of the monolayer: AP-to-BL, in the absence or presence of protease inhibitors (bestatin, diprotin, captopril)
in vitro = details: rat, blood, pH 7.4
[3] = human, Caco-2
[4] = rat, whole blood, pH 7.4
[5] = incubated in human blood, pH 7.4, 37° C.

Compound: Cc1cc(C)c2c(c1)OC(=O)[C@H](C)NC(=O)[C@H](CC(=O)O)NC(=O)CNC(=O)CNC(=O)[C@H](C)NC(=O)[C@H](Cc1c[nH]c3ccccc13)NC(=O)CC2(C)C [1b] (HELM PEPTIDE1{W.A.G.G.D.A}|CHEM1{[Cc1cc(C)c(C(C)(C)CC(=O)[*:1])c(O[*:2])c1]}$PEPTIDE1,CHEM1,1:R1-1:R1|PEPTIDE1,CHEM1,6:R2-1:R2$$$V2.0)
- half-life [1]: 2.88 h
- half-life of chemical stability (T1/2) [2]: 12.7 h
- increase in permeability compared to capped hexapeptide Ac-Trp-Ala-Gly-Gly-Asp-Ala-NH2 (Caco-2 cell monolayer): 5-6 fold
- Papp (apparent permeability coefficient) (Caco-2 cell monolayer): 1.21±0.36×10^-7 cm/sec.
- half-life (in vitro): 2.88 h

Compound: Ac-WAGGDA-NH2 [Ac-Trp-Ala-Gly-Gly-Asp-Ala-NH2, reference compound]
- Papp (apparent permeability coefficient) (Caco-2 cell monolayer): 2.1±0.5×10^-8 cm/sec.
- remaining at 3 h [3]: 75.8 ± 4%

Compound: C[C@@H]1NC(=O)[C@H](Cc2c[nH]c3ccccc23)NC(=O)OCOC(=O)[C@H](C)NC(=O)[C@H](CC(=O)O)NC(=O)CNC(=O)CNC1=O [1a] (HELM PEPTIDE1{W.A.G.G.D.A}|CHEM1{[O=C(OCO[*:2])[*:1]]}$PEPTIDE1,CHEM1,1:R1-1:R1|PEPTIDE1,CHEM1,6:R2-1:R2$$$V2.0)
- half-life [4]: 1.85 h
- half-life of chemical stability (T1/2) [2]: 3.47 h
- T1/2 in human blood [5]: 1.65 h
- increase in permeability compared to capped hexapeptide Ac-Trp-Ala-Gly-Gly-Asp-Ala-NH2 (Caco-2 cell monolayer): 5-6 fold
- Papp (apparent permeability coefficient) (Caco-2 cell monolayer): 1.17±0.11×10^-7 cm/sec.

Compound: WAGGDA [Trp-Ala-Gly-Gly-Asp-Ala, reference compound]
- permeation to BL side of the monolayer (Caco-2 cell monolayer): no detectable quantities
- permeation to BL side of the monolayer (Caco-2 cell monolayer; listed as native peptide): totally impermeable
- remaining at 2 h [3]: 0.8 ± 0.1%
